# Results reported in patent US7417036B2, “Crystal form of adefovir dipivoxil and its preparation” (Tianjin Kinsly Pharmaceutical Co. Ltd., priority 2002, dated 2008).
# Values joined by “and” are separate entries in the source; they are usually repeats but may differ in a detail not shown here. Identical values can stand only once.
# Test: Kinetic studies of the plasma concentration in animals with different crystalline forms of AD (oral, monkeys; adefovir measured in serum by HPLC)
# Type: in vivo, Macaques
# Conditions: 20 mg/kg, 20 mg/kg
# Protocol: The experiment was carried out by orally administering to monkeys the drugs in order to investigate the in vivo absorption of two crystalline forms of AD: the novel crystalline AD of the present invention produced by Tianjin Kinsly pharmaceutical R & D Co. Ltd. and crystalline form I of AD prepared according to the method of GILEAD SCIENCES INC. The experiment provides useful clinical references for the application of novel crystalline AD.
# Tablets of novel crystalline form of AD, white, each of which contains 10 mg of adefovir, Tianjin Kinsly pharmaceutical R&D Co. Ltd., batch number 020320.
# Tablets of AD crystalline form I, white, each of which contains 10 mg of adefovir, Tianjin Kinsly pharmaceutical R&D Co. Ltd., batch number 020225.
# Macaques, weighing from 5 kg to 8 kg (certificate No: 2001-03, approved by Beijing Forestry Administration in the document of [2001] 83) were provided by Xie'er Animal Health Caring Science and Technology Co. Ltd (Beijing, P. R. China).
# As the pro-drug of adefovir, AD is the bis-pivaloyloxymethyl ester of adefovir, which increases the in vivo bioavailability of orally administered adefovir. AD can be rapidly metabolized into PMEA, rendering it undetectable in blood. Thus the concentration of its parent compound was measured.
# Mobile phase: 0.2% phosphoric acid-methanol-B7 (97:3:0.5) degassed and filtrated through 0.45 μm milipore filter.
# Stationary phase: C18-column (4.6×250 mm) packed with 5μ fillers, Tianjin Tianhe Chromatogram Inc, the column temperature from 18° C. to 22° C.
# Detection: the UV detection wavelength λ=260 nm (0.01AUFS)
# A given volume of serum was taken and an equal volume of 10% trichloroacetic acid was added. The mixture was shaken thoroughly and kept still for more than 30 min to precipitate the proteins, then centrifuged at 10000 rpm for 2 min. The precipitates were separated and 30 μL of the supernat was removed for injection.
# The experiment was started one week after intestinal worms were dispelled from the animals. Eight animals were randomly assigned into two groups, each consisting of four animals. The animals were fasted for 12 h and were orally administered the novel crystalline form of AD for one group or crystalline form I of AD for another group at a dose of 20 mg/kg together with 200 ml of water. 2 hours after administration, the animals were fed in a fixed quantity. 2.0 ml samples of whole blood were collected from the elbow veins before administration and 10, 20, 30, 45 min and 1, 2, 4, 6, 8, 12, and 24 h after administration. The serum was separated and freeze-stored for measurement. A cross-experiment was done similarly 2 weeks later.
# The pharmacokinetic parameters were calculated based on the plasma concentrations at different time points. The time to peak concentration (Tpeak) and the maximum concentration (Cmax) used the measured value. The terminal phase elimination rate constant (Ke) was obtained by fitting the linear section of the curve of logarithm of the plasma concentration of drug in terminal phase versus time and the terminal phase clearance half life time (T1/2) was calculated by dividing 0.693 by Ke. AUC0-t was calculated according to the trapezoid rule.
# Apparent volume of distribution (Vd)=dosage/(AUCXKe);
# Total Clearance (CL)=dosage/AUC.
# Comparison of the data of the two crystalline form: Data of Cmax, Ke, T1/2 and AUC0-t were statistically processed by t test, while Tpeak was processed by non-parametric test. In addition, Comparison of bio-equivalence was carried out based on Cmax and AUC0-t by using two one-sided t test.
# Eight macaques were assigned into two groups, group for the novel crystalline form and the group for crystalline form I. The animals were administered according to an open randomized crossover scheme. Afterward, adefovir concentrations in serum were measured at the predetermined time points. […]
# [1] = adefovir, oral 20 mg/kg, macaques, average of 8 animals (ASD row)
# [2] = adefovir, oral 20 mg/kg, macaques, average of 8 animals
# [3] = adefovir, oral 20 mg/kg, macaques, individual animal No. 1-8
smiles,measurement,setting,value
CC(C)(C)C(=O)OCOP(=O)(COCCn1cnc2c(N)ncnc21)OCOC(=O)C(C)(C)C [novel crystalline form],"Adefovir concentrations in serum (Plasma concentrations versus time), average","0.167 h after oral administration, macaques, average of 8 animals (ASD row)",74.3 ng/mL
same,Adefovir concentrations in serum (Plasma concentrations versus time),"0.167 h after oral administration, macaques, individual animal No. 1-8",51.8 ng/mL and 105.0 ng/mL and 103.9 ng/mL and 78.3 ng/mL and 64.9 ng/mL and 53.2 ng/mL and 60.0 ng/mL and 76.9 ng/mL
same,"Adefovir concentrations in serum (Plasma concentrations versus time), average","0.333 h after oral administration, macaques, average of 8 animals (ASD row)",201.4 ng/mL
same,Adefovir concentrations in serum (Plasma concentrations versus time),"0.333 h after oral administration, macaques, individual animal No. 1-8",186.7 ng/mL and 258.5 ng/mL and 248.8 ng/mL and 190.1 ng/mL and 125.9 ng/mL and 154.1 ng/mL and 176.3 ng/mL and 270.7 ng/mL
same,"Adefovir concentrations in serum (Plasma concentrations versus time), average","0.5 h after oral administration, macaques, average of 8 animals (ASD row)",507.4 ng/mL
same,Adefovir concentrations in serum (Plasma concentrations versus time),"0.5 h after oral administration, macaques, individual animal No. 1-8",952.4 ng/mL and 403.1 ng/mL and 398.3 ng/mL and 541.8 ng/mL and 396.0 ng/mL and 448.9 ng/mL and 529.4 ng/mL and 389.5 ng/mL
same,"Adefovir concentrations in serum (Plasma concentrations versus time), average","0.75 h after oral administration, macaques, average of 8 animals (ASD row)",392.0 ng/mL
same,Adefovir concentrations in serum (Plasma concentrations versus time),"0.75 h after oral administration, macaques, individual animal No. 1-8",507.6 ng/mL and 306.8 ng/mL and 538.7 ng/mL and 360.6 ng/mL and 278.8 ng/mL and 195.6 ng/mL and 393.7 ng/mL and 55.0 ng/mL
same,"Adefovir concentrations in serum (Plasma concentrations versus time), average","1 h after oral administration, macaques, average of 8 animals (ASD row)",238.8 ng/mL
same,Adefovir concentrations in serum (Plasma concentrations versus time),"1 h after oral administration, macaques, individual animal No. 1-8",260.3 ng/mL and 231.8 ng/mL and 374.7 ng/mL and 269.4 ng/mL and 233.5 ng/mL and 132.7 ng/mL and 273.4 ng/mL
same,"Adefovir concentrations in serum (Plasma concentrations versus time), average","2 h after oral administration, macaques, average of 8 animals (ASD row)",199.3 ng/mL
same,Adefovir concentrations in serum (Plasma concentrations versus time),"2 h after oral administration, macaques, individual animal No. 1-8",221.6 ng/ml and 196.1 ng/ml (2×) and 241.4 ng/ml and 117.7 ng/ml and 105.3 ng/ml and 260.3 ng/ml
same,"Adefovir concentrations in serum (Plasma concentrations versus time), average","4 h after oral administration, macaques, average of 8 animals (ASD row)",157.3 ng/mL
same,Adefovir concentrations in serum (Plasma concentrations versus time),"4 h after oral administration, macaques, individual animal No. 1-8",205.1 ng/mL and 140.9 ng/mL and 184.8 ng/mL and 198.9 ng/mL and 175.8 ng/mL and 85.0 ng/mL and 77.2 ng/mL and 191.0 ng/mL
same,"Adefovir concentrations in serum (Plasma concentrations versus time), average","6 h after oral administration, macaques, average of 8 animals (ASD row)",119.7 ng/mL
same,Adefovir concentrations in serum (Plasma concentrations versus time),"6 h after oral administration, macaques, individual animal No. 1-8",177.0 ng/mL and 114.5 ng/mL and 95.2 ng/mL and 141.2 ng/mL and 141.3 ng/mL and 85.9 ng/mL and 57.3 ng/mL and 145.3 ng/mL
same,"Adefovir concentrations in serum (Plasma concentrations versus time), average","8 h after oral administration, macaques, average of 8 animals (ASD row)",102.7 ng/mL
same,Adefovir concentrations in serum (Plasma concentrations versus time),"8 h after oral administration, macaques, individual animal No. 1-8",158.9 ng/mL and 96.9 ng/mL and 112.0 ng/mL and 89.4 ng/mL and 110.7 ng/mL and 79.0 ng/mL and 55.6 ng/mL and 119.2 ng/mL
same,"Adefovir concentrations in serum (Plasma concentrations versus time), average","12 h after oral administration, macaques, average of 8 animals (ASD row)",70.3 ng/mL
same,Adefovir concentrations in serum (Plasma concentrations versus time),"12 h after oral administration, macaques, individual animal No. 1-8",112.6 ng/mL and 82.1 ng/mL and 46.1 ng/mL and 64.5 ng/mL and 44.8 ng/mL and 59.4 ng/mL and 80.5 ng/mL and 72.2 ng/mL
same,"Adefovir concentrations in serum (Plasma concentrations versus time), average","24 h after oral administration, macaques, average of 8 animals (ASD row)",51.7 ng/mL
same,Adefovir concentrations in serum (Plasma concentrations versus time),"24 h after oral administration, macaques, individual animal No. 1-8",99.3 ng/mL and 76.3 ng/mL and 28.3 ng/mL and 53.1 ng/mL and 36.6 ng/mL and 41.6 ng/mL and 59.4 ng/mL and 19.2 ng/mL
same,Vd,"adefovir apparent volume of distribution, oral 20 mg/kg, macaques, individual animal No. 1-8",147.5 L and 211.8 L and 89.1 L and 115.1 L and 112.4 L and 265.9 L and 224.6 L and 67.1 L
same,"CL, average",[1],8601.4 mL/h
same,"Ke, average",[1],0.066 L/h
same,"T1/2, average",[1],12.5 h
same,"Tpeak, average",[1],0.56 h
same,"Vd, average",[1],154.2 L
same,"AUC0-t, average",[2],2426.4 ng·h/mL
same,"Cmax, average",[2],545.7 ng/mL
same,"AUC0-t, average","adefovir, oral 20 mg/kg, macaques, average of 8 animals, listed as Novel form",2426 ng·h/mL
same,AUC0-t,[3],3593.4 ng·h/mL and 2567.8 ng·h/mL and 2318.3 ng·h/mL and 2554.7 ng·h/mL and 2162.8 ng·h/mL and 1735.9 ng·h/mL and 1921.2 ng·h/mL and 2556.8 ng·h/mL
same,Cmax,[3],403.1 ng/mL and 538.7 ng/mL and 541.8 ng/mL and 396.3 ng/mL and 448.9 ng/mL and 529.4 ng/mL and 555.0 ng/mL
same,T1/2,[3],18.4 h and 18.8 h and 7.2 h and 10.2 h and 8.4 h and 16.0 h and 14.9 h and 5.9 h
same,Tpeak,[3],0.50 h (6×) and 0.75 h (2×)
same,Cmax,"adefovir, oral 20 mg/kg, macaques, individual animal No. 1-8, listed as Novel form",952.4 ng/mL and 396.2 ng/mL and 448.8 ng/mL
same,average AUCO-T,"adefovir, oral 20 mg/kg",2426.37 ng·h/mL
same,average Tpeak,"adefovir, oral 20 mg/kg",0.56 h
same,average apparent volume of distribution (Vc),"adefovir, oral 20 mg/kg",19.74 L
same,average elimination half-life time,"adefovir, oral 20 mg/kg",12.5 h
same,average peak concentration,"adefovir, oral 20 mg/kg",545.69 ng/mL
